Assay results reported in the NIST ThermoML archive (doi:10.1021/je700751a).
± gives the expanded uncertainty stated by the source.

Assay: mn = molality of the nth substance listed, in mol/kg
Settings: 101 kPa, Liquid; for viscosity: Capillary tube (Ostwald / Ubbelohde) method

O=C([O-])[C@H](O)[C@@H](O)C(=O)[O-].[K+].[K+] [dipotassium L-tartrate] + O
Settings | mass density, 298.15 K [kg/m3] | mass density, 308.15 K [kg/m3] | mass density, 318.15 K [kg/m3] | speed of sound, 298.15 K [m/s] | viscosity, 298.15 K [mPa·s] | viscosity, 308.15 K [mPa·s] | viscosity, 318.15 K [mPa·s]
m1 = 0.0222 | – | – | – | – | 0.879 ± 0.01 | 0.718 ± 0.008 | 0.595 ± 0.007
m1 = 0.0312 | – | – | – | – | 0.892 ± 0.01 | 0.723 ± 0.008 | 0.601 ± 0.007
m1 = 0.0398 | 1002.88 ± 0.13 | 999.78 ± 0.13 | 995.909 ± 0.13 | 1502.5 ± 1.5 | – | – | –
m1 = 0.0498 | 1004.29 ± 0.13 | 1001.18 ± 0.13 | 997.282 ± 0.13 | 1503.7 ± 1.5 | – | – | –
m1 = 0.0516 | – | – | – | – | 0.902 ± 0.01 | 0.731 ± 0.009 | 0.609 ± 0.007
m1 = 0.0615 | 1005.99 ± 0.14 | 1002.85 ± 0.13 | 998.942 ± 0.13 | 1505.4 ± 1.5 | – | – | –
m1 = 0.0697 | 1007.18 ± 0.14 | 1004.01 ± 0.13 | 1000.09 ± 0.13 | 1506.5 ± 1.5 | – | – | –
m1 = 0.073 | – | – | – | – | 0.911 ± 0.011 | 0.737 ± 0.009 | 0.612 ± 0.007
m1 = 0.0797 | 1008.56 ± 0.14 | 1005.39 ± 0.14 | 1001.44 ± 0.13 | 1508.8 ± 1.5 | – | – | –
m1 = 0.0897 | 1010.01 ± 0.14 | 1006.8 ± 0.14 | 1002.86 ± 0.13 | 1509.5 ± 1.5 | – | – | –
m1 = 0.0909 | – | – | – | – | 0.917 ± 0.011 | 0.75 ± 0.009 | 0.623 ± 0.007
m1 = 0.0996 | 1011.42 ± 0.14 | 1008.21 ± 0.14 | 1004.24 ± 0.13 | 1510.3 ± 1.5 | – | – | –
m1 = 0.1822 | – | – | – | – | 0.948 ± 0.011 | 0.773 ± 0.009 | 0.639 ± 0.007
m1 = 0.2842 | – | – | – | – | 0.985 ± 0.011 | 0.799 ± 0.009 | 0.665 ± 0.008
m1 = 0.3 | 1039.02 ± 0.19 | 1035.42 ± 0.18 | 1031.19 ± 0.18 | 1535.7 ± 1.5 | – | – | –
m1 = 0.3843 | – | – | – | – | 1.012 ± 0.012 | 0.821 ± 0.01 | 0.693 ± 0.008
m1 = 0.4639 | – | – | – | – | 1.04 ± 0.012 | 0.847 ± 0.01 | 0.705 ± 0.008
m1 = 0.4985 | 1064.81 ± 0.23 | 1060.93 ± 0.22 | 1056.45 ± 0.22 | 1559.5 ± 1.5 | – | – | –
m1 = 0.6883 | – | – | – | – | 1.125 ± 0.013 | 0.916 ± 0.011 | 0.764 ± 0.009
m1 = 0.6922 | 1088.8 ± 0.27 | 1084.65 ± 0.26 | 1079.98 ± 0.25 | 1582.2 ± 1.5 | – | – | –
m1 = 0.8934 | 1112.36 ± 0.31 | 1108 ± 0.3 | 1103.17 ± 0.29 | 1605.2 ± 1.6 | – | – | –
m1 = 1.098 | – | – | – | – | 1.294 ± 0.015 | 1.054 ± 0.012 | 0.879 ± 0.01
m1 = 1.284 | 1155.12 ± 0.38 | 1150.41 ± 0.37 | 1145.3 ± 0.36 | 1648.3 ± 1.6 | – | – | –
m1 = 1.468 | – | – | – | – | 1.474 ± 0.017 | 1.206 ± 0.014 | 1.006 ± 0.012
m1 = 1.579 | 1185.12 ± 0.42 | 1180.16 ± 0.42 | 1174.96 ± 0.41 | 1680.5 ± 1.6 | – | – | –
m1 = 1.878 | – | – | – | – | 1.71 ± 0.019 | 1.389 ± 0.016 | 1.157 ± 0.013
m1 = 1.965 | 1221.2 ± 0.48 | 1216.05 ± 0.48 | 1210.59 ± 0.47 | 1718.3 ± 1.7 | – | – | –
m1 = 2.443 | 1262.59 ± 0.55 | 1257.21 ± 0.55 | 1251.59 ± 0.54 | 1764 ± 1.7 | – | – | –
m1 = 2.602 | – | – | – | – | 2.243 ± 0.026 | 1.801 ± 0.021 | 1.483 ± 0.017
m1 = 2.923 | 1299.6 ± 0.61 | 1294.09 ± 0.61 | 1288.34 ± 0.6 | 1805.2 ± 1.7 | – | – | –
m1 = 3.391 | 1331.8 ± 0.67 | 1326.15 ± 0.66 | 1320.32 ± 0.65 | 1841.5 ± 1.8 | – | – | –
m1 = 3.405 | – | – | – | – | 3.301 ± 0.037 | 2.613 ± 0.03 | 2.12 ± 0.024
m1 = 3.858 | 1362.45 ± 0.72 | 1356.74 ± 0.71 | 1350.83 ± 0.7 | 1876.2 ± 1.8 | – | – | –
m1 = 4.077 | – | – | – | – | 4.296 ± 0.049 | 3.367 ± 0.038 | 2.7 ± 0.031
m1 = 4.324 | 1389.87 ± 0.77 | 1384.06 ± 0.76 | 1378.1 ± 0.75 | 1907 ± 1.8 | – | – | –
m1 = 4.785 | 1414.66 ± 0.81 | 1408.83 ± 0.8 | 1402.83 ± 0.79 | 1935.4 ± 1.8 | – | – | –
m1 = 5.188 | – | – | – | – | 6.378 ± 0.073 | 4.841 ± 0.055 | 3.829 ± 0.044
m1 = 5.238 | 1437.73 ± 0.85 | 1431.81 ± 0.84 | 1425.78 ± 0.83 | 1960.6 ± 1.9 | – | – | –
m1 = 5.378 | – | – | – | – | 7.066 ± 0.08 | 5.339 ± 0.062 | 4.176 ± 0.048
m1 = 5.692 | 1459.07 ± 0.89 | 1453.12 ± 0.88 | 1447.06 ± 0.87 | 1984.8 ± 1.9 | – | – | –
